{"source": "ChEMBL document CHEMBL1158995", "about": "“A novel perlactone from the Caribbean sponge Plakortis angulospiculatus” (J Nat Prod, 1991)", "tested_on": "Candida albicans", "assay": "Antimicrobial activity against Candida albicans ATCC 32354", "type": "functional, organism-based", "note": "Calls of active or inactive are those of the source. No cut-off for these calls is given here.", "data": [{"smiles": "CC1=C(O)C(C)(CCCCCC(C)CCCCc2ccc(O)cc2)OOC1=O", "note": "(stereo unspecified)", "values": [{"measurement": "Activity", "value": "inactive"}]}]}
